This is an account of results in ChEMBL document CHEMBL3112494, “Heterocyclic core analogs of a direct thrombin inhibitor” (Bioorg Med Chem Lett, 2014).

Series [1] deals with T1, Coagulation factor XII (Homo sapiens, UniProt P00748).
T1 sequence (P00748 whole entry): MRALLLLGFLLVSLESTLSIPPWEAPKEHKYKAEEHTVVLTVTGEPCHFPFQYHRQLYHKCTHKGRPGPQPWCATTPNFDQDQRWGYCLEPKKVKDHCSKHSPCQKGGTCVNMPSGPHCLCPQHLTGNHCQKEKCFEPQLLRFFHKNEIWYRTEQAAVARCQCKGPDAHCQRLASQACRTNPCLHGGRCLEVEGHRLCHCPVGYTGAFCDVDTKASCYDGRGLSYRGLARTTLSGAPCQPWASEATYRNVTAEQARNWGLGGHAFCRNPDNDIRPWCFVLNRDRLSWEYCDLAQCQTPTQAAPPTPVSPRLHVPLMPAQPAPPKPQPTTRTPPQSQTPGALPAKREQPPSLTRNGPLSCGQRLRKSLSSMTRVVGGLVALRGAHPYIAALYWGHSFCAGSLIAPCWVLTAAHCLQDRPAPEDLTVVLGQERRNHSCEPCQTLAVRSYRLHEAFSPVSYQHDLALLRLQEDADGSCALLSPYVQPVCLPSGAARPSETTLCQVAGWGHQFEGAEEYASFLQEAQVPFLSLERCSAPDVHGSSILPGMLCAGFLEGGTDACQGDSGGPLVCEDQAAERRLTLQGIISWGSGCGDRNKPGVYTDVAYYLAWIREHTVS
The series is described as follows: Inhibition of factor 12a (unknown origin).

Series [2] deals with Cytochrome P450 3A4 (Homo sapiens, UniProt P08684). Nature of the series: Inhibition of CYP3A4 (unknown origin) up to 50 uM. It counts as ADME.
Cytochrome P450 3A4, sequence (P08684 whole entry): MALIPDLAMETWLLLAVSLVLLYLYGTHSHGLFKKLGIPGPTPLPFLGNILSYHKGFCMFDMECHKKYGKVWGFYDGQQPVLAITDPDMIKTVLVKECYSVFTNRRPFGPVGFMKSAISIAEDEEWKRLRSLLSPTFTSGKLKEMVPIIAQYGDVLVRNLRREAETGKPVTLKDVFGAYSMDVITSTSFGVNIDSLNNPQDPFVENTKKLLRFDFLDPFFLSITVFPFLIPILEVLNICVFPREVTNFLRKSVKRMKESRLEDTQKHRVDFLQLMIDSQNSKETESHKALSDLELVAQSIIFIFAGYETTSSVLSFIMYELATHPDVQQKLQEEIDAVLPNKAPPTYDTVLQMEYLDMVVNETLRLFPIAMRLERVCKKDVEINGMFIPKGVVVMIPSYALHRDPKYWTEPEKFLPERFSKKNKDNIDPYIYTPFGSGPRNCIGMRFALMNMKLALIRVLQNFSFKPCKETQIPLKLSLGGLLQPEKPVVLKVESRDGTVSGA
Series [3] deals with Cytochrome P450 2D6 (Homo sapiens, UniProt P10635). Nature of the series: Inhibition of CYP2D6 (unknown origin) up to 50 uM. Type of series: ADME.
Cytochrome P450 2D6, sequence (P10635 whole entry): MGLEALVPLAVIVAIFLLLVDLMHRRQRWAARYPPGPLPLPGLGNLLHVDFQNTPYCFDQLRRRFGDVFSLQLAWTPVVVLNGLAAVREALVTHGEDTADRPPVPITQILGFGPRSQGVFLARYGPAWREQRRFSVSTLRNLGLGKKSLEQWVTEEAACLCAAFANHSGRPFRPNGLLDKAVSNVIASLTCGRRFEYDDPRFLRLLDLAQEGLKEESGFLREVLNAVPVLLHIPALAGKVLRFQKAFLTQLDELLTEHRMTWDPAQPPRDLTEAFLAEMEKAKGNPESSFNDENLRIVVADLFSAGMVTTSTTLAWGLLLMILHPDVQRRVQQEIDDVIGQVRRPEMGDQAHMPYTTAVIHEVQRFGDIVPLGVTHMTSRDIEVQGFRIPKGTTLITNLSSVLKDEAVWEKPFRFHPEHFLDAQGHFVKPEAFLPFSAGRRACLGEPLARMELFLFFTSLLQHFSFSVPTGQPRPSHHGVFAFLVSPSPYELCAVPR
Series [4] addresses Coagulation factor X (Homo sapiens, UniProt P00742). Nature of the series: Inhibition of factor 10a (unknown origin).
Series [5] concerns the target T2, Coagulation factor VII (Homo sapiens, UniProt P08709).
T2 sequence (P08709 whole entry): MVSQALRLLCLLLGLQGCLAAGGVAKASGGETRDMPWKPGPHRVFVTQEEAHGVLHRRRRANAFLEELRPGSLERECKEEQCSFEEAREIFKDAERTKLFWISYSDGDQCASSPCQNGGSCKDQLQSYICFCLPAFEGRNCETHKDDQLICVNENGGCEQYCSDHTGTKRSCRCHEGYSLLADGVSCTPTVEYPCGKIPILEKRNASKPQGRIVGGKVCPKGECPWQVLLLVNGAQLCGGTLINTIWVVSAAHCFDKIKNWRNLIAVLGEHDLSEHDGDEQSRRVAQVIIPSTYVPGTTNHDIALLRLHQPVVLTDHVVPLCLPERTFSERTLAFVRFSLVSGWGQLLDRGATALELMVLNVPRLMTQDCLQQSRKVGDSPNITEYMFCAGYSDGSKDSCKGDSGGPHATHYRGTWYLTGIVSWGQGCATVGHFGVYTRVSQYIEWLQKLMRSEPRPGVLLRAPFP
The series is described as follows: Inhibition of factor 7a (unknown origin).

Series [6] deals with Cytochrome P450 2C9 (Homo sapiens, UniProt P11712). Nature of the series: Inhibition of CYP2C9 (unknown origin) up to 50 uM. It counts as ADME.
Cytochrome P450 2C9, sequence (P11712 whole entry): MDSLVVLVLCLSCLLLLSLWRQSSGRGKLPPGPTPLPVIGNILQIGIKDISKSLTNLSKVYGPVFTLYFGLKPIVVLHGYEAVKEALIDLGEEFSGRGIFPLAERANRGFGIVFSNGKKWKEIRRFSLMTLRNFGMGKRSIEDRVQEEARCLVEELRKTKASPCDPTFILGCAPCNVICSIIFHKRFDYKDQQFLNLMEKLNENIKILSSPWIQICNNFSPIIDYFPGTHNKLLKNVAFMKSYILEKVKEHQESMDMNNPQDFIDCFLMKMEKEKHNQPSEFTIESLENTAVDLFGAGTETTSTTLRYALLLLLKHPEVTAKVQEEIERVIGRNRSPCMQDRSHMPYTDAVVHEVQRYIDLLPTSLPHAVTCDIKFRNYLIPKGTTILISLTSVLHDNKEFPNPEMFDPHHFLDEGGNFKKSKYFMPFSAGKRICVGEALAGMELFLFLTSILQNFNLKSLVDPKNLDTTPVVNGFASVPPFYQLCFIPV
In series [7] the target is Trypsin (Homo sapiens, UniProt P07477+P07478+P35030). Nature of the series: Inhibition of trypsin (unknown origin). Type of series: protein assay.
A short description of series [8]: AUC in dog at 0.3 mg/kg, iv. Type of series: ADME, organism-based, Canis lupus familiaris. Details: dose 0.3 mg/kg, route intravenous. As to conditions: plasma.
The nature of series [9]: Half life in dog at 0.3 mg/kg, iv. More on the design: dose 0.3 mg/kg, route intravenous. It counts as ADME, organism-based, Canis lupus familiaris. As to conditions: in vivo.
In series [10] the target is Prothrombin (Homo sapiens, UniProt P00734). Nature of the series: Inhibition of thrombin (unknown origin).
A short description of series [11]: Clearance in dog at 0.3 mg/kg, iv. Type of series: ADME, organism-based, Canis lupus familiaris. The note with it: in vivo. Details: dose 0.3 mg/kg, route intravenous.
Series [12] can be described thus: Volume of distribution in dog at 0.3 mg/kg, iv. Type of series: ADME, organism-based, Canis lupus familiaris. Details: dose 0.3 mg/kg, route intravenous. The note with it: in vivo.
Series [13] concerns the target Coagulation factor IX (Homo sapiens, UniProt P00740). Nature of the series: Inhibition of factor 9a (unknown origin).
Series [14] is described as follows: Metabolic stability in dog hepatocytes assessed as compound remaining after 90 mins. Type of series: ADME, cell-based, Canis lupus familiaris, Hepatocyte. As to conditions: read-out: Stability.

A value given as a limit tells only on which side of the number the result lay.

Coagulation factor IX, sequence (P00740 47-191 limits assumed): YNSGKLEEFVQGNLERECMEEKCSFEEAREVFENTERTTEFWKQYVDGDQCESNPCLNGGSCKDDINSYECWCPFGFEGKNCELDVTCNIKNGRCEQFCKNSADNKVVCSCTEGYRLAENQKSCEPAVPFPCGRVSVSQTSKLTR
Coagulation factor IX, sequence (P00740 227-461 limits assumed): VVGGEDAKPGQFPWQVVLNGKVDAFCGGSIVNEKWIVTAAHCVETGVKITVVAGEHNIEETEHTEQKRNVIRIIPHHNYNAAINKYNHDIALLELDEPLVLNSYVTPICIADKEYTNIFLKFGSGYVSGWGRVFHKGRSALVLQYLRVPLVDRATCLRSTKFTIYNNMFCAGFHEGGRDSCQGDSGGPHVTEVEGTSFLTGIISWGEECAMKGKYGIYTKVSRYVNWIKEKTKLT
Coagulation factor X, sequence (P00742 41-179 limits assumed): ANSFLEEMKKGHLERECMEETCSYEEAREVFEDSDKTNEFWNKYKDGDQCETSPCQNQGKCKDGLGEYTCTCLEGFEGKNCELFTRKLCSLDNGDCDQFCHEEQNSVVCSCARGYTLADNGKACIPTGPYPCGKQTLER
Coagulation factor X, sequence (P00742 235-488 limits assumed): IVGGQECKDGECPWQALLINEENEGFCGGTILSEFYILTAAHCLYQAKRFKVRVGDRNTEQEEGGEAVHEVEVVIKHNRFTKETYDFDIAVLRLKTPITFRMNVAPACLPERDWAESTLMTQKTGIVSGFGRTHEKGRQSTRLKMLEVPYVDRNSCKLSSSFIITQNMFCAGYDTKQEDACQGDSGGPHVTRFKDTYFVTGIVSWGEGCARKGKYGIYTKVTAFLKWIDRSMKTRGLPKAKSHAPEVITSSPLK

In general, Ki refers to the equilibrium dissociation constant of an inhibitor or competing ligand from its target. A lower Ki goes with tighter binding. Regarding `CC(C)(C)[C@@H](O)C(=O)N1CCS(=O)(=O)C[C@H]1C(=O)NCc1cc(Cl)ccc1CN.O=C(O)C(F)(F)F`, the Ki in series [1] was greater than 15 µM; in series [4], 3.1 µM; in [5], greater than 15 µM; in [7], 15 µM. Further, the “inhibition (INH)” value in series [2], in [3] and in series [6] was “Not Active” throughout.

For orientation: AUC means concentration integrated over time. Read a high AUC as more exposure. Usually half-life stands for the time needed for the level to fall by half in the phase considered. The clearance is the volume of plasma or blood freed of the substance per unit of time. For orientation: Vd means the apparent volume that relates the amount in the body to the concentration in plasma or blood. Low readings indicate little distribution into tissue, high ones wide distribution into tissue. With `CC(C)(C)[C@@H](O)C(=O)N1CCC[C@H]1C(=O)NCc1cc(Cl)ccc1CN.O=C(O)C(F)(F)F`, the Ki in [1] is greater than 15 µM; in series [10], 0.0015 µM; in series [4], 1.4 µM; in series [5], greater than 15 µM; in [7], 5.6 µM; in series [13] it was greater than 3 µM. Moreover, the exposure (AUC) in [8] came out at 10 µM·h. For the same molecule, the “inhibition (INH)” value in [2], in series [3] and in series [6] was “Not Active” throughout. This molecule had a half-life in [9] of 6.8 h. This molecule also displayed a clearance in series [11] of 3.5 mL/min/kg. Moreover, in series [12], the volume of distribution (Vd) is 1.9 L/kg. The remaining at 1.5 h in series [14] is 93%.

As to `CC(C)(C)[C@@H](O)C(=O)N1CCCC[C@H]1C(=O)NCc1cc(Cl)ccc1CN.O=C(O)C(F)(F)F`, the Ki in series [1] was greater than 15 µM; in [4], 1.8 µM; in series [5] it was greater than 15 µM; in series [7] it was 10.6 µM. Besides, the “inhibition (INH)” value in [2], in series [3] and in series [6] was “Not Active” throughout.

With `CN1CCN(C(=O)[C@H](O)C(C)(C)C)[C@H](C(=O)NCc2cc(Cl)ccc2CN)C1.O=C(O)C(F)(F)F`, the Ki in series [1] is greater than 15 µM; in series [4] it was 3.7 µM; in series [5], greater than 15 µM; in series [7] it was 15 µM. Further, the “inhibition (INH)” value in series [2], in series [3] and in [6] was “Not Active” throughout.

As to `CC(C)(C)[C@@H](O)C(=O)N1CC[S+]([O-])C[C@H]1C(=O)NCc1cc(Cl)ccc1CN.O=C(O)C(F)(F)F` (stereo partly specified), the “inhibition (INH)” value in series [2], in [3] and in series [6] was “Not Active” in each case.

For the molecule `CC(C)(C)[C@@H](O)C(=O)N1CCNC[C@H]1C(=O)NCc1cc(Cl)ccc1CN.O=C(O)C(F)(F)F`, the Ki was greater than 15 µM in [1]; 4.4 µM in series [4]; greater than 15 µM in series [5]; 15 µM in [7]; 15 µM in series [13]. The “inhibition (INH)” value in series [2], in series [3] and in series [6] was “Not Active” each time.

For `CC(C)(C)[C@@H](O)C(=O)N1CCOC[C@H]1C(=O)NCc1cc(Cl)ccc1CN.O=C(O)C(F)(F)F`, the Ki is greater than 15 µM in [1]; 3.9 µM in series [4]; greater than 15 µM in series [5]; 15 µM in series [7]; 15 µM in series [13]. Moreover, the “inhibition (INH)” value in [2], in series [3] and in series [6] was “Not Active” throughout.

As to `CC(C)(C)[C@@H](O)C(=O)N1CCSC[C@H]1C(=O)NCc1cc(Cl)ccc1CN.O=C(O)C(F)(F)F`, the Ki in series [1] was greater than 15 µM; in [4] it was 0.9 µM; in series [5], greater than 15 µM; in [7] it was 9.4 µM. In series [8], the AUC worked out at 1 µM·h. For the same molecule, the “inhibition (INH)” value in series [2], in [3] and in series [6] was “Not Active” each time. Moreover, the half-life in [9] was 2.7 h. The clearance in [11] amounted to 12.8 mL/min/kg. This molecule also yielded a volume of distribution (Vd) in series [12] of 2.3 L/kg. In series [14], the remaining at 1.5 h was 76%.
